Results on 26 molecules are retold here after patent US7217710B2, “Substituted pyrazolopyrimidines” (SmithKline Beecham Corporation, priority 2001, dated 2007).

This assay deals with T1, GST-TIE2 (intracellular domains of human TIE2) (Homo sapiens, UniProt Q02763).
T1 construct: made in house
Nature of the assay: TIE-2 Enzyme Assay (TIE2-E2), LANCE method. Format: biochemical. The note with it: for IC50: read-out: TIE2 PIC50 TIE2-E2 assay. The text has this: TIE-2 Enzyme Assay (TIE2-E2
The TIE-2 enzyme assay uses the LANCE method (Wallac) and GST-TIE2, baculovirus-expressed recombinant constructs of the intracellular domains of human TIE2 (amino acids 762–1104, GenBank Accession # L06139) tagged by GST). The method measures the ability of the purified enzymes to catalyse the transfer of the γ-phosphate from ATP onto tyrosine residues in a biotinylated synthetic peptide, D1–15 (biotin-C6-LEARLVAYEGWVAGKKKamide). This peptide phosphorylation is detected using the following procedure: for enzyme preactivation, GST-TIE2 is incubated for 2 hours at room temperature with 80 μM ATP, 10 mM MgCl2, 0.1 mg/ml BSA, 0.01% Tween 20 and 1 mM DTT in 100 mM HEPES buffer (pH7.4). 5 nM preactivated GST-TIE2 is incubated for 2 hours at room temperature in 96 well plates with 1 uM D1–15 peptide, 80 uM ATP, 10 mM MgCl2, 0.1 mg/ml BSA, 0.01% Tween 20 and titrated test compound (diluted from a 10 mM stock in DMSO, final DMSO concentration is 2.4%) in 100 mM HEPES (pH7.4). The reaction is stopped by the addition of EDTA (final concentration 45 mM). Streptavidin linked-APC (allophycocyanin, PerkinElmer) and europium-labeled anti-phosphotyrosine antibody (PerkinElmer) are then added at the final concentration of 8 nM and 1 nM, respectively. The APC signal is measured using an Wallac Multilabel 1420 counter. (Wallac Berthold Japan). The percent inhibition of activity is calculated relative to blank control wells. The concentration of test compound that inhibits 50% of activity (IC50) is interpolated using nonlinear regression (Levernberg-Marquardt) and the equation, y=Vmax (1−x/(K+x))+Y2, where “K” is equal to the IC50. The IC50 values are converted to pIC50 values, i.e., −log IC50 in Molar concentration.

Some results are limits rather than exact numbers.

T1 sequence (Q02763 762-1104): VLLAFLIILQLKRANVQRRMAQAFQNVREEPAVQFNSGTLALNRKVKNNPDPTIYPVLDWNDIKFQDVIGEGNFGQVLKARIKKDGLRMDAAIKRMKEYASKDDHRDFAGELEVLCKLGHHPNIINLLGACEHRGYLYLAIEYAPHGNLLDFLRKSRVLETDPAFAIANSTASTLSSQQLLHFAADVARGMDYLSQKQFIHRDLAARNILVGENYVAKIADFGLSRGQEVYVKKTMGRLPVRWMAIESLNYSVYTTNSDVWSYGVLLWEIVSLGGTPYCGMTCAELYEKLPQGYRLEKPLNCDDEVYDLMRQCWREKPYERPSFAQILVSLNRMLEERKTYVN

As for “2,3-Dichloro-N-{4-[1-methyl-6-(3-diethylamino -propylamino)-1H-pyrazolo[3,4-d]pyrimidin-3-yl]-phenyl}-benzenesulfonamide [Example 107]”, the “TIE2 PIC50 TIE2-E2 assay” value is given as “−− (−− = PIC50 less than 5.00)”.
As for `Cn1nc(-c2ccc(NC(=O)Nc3cc(C(F)(F)F)ccc3F)cc2)c2cnc(NCCOC(=O)Nc3cc(C(F)(F)F)ccc3F)nc21` [Example 30, (Fluoro-trifluoromethyl-phenyl)-carbamic acid 2-(3-{4-[3-(fluoro-trifluoromethyl-phenyl)-ureido]-phenyl}-1-methyl-1H-pyrazolo[3,4-d]pyrimidin-6-ylamino)-ethyl ester], the IC50 lay within 1 to 10 µM.
Regarding `Cn1nc(-c2ccc(NC(=S)Nc3cccc(C(F)(F)F)c3)cc2)c2cnc(NCCN3CCOCC3)nc21` [Example 36, 1-{4-[1-Methyl-6-(2-morpholin-4-yl-ethylamino)-1H-pyrazolo[3,4-d]pyrimidin-3-yl]-phenyl}-3-(3-trifluoromethyl-phenyl)-thiourea], the IC50 lay within 0.1 to 1 µM.
Same read-out and setting: with `CCc1cccc(NC(=O)Nc2ccc(-c3nn(C)c4nc(NCCN5CCOCC5)ncc34)cc2)c1` [Example 38, 1-(3-Ethyl-phenyl)-3-{4-[1-methyl-6-(2-morpholin-4-yl-ethylamino) -1H-pyrazolo[3,4-d]pyrimidin-3-yl]-phenyl}-urea] the figure was 0.0398 to 0.1 µM; with `CC(=O)c1cccc(NC(=O)Nc2ccc(-c3nn(C)c4nc(NCCN5CCOCC5)ncc34)cc2)c1` [Example 40, 1-(3-Acetyl-phenyl)-3-{4-[1-methyl-6-(2-morpholin-4-yl-ethylamino)-1H-pyrazolo[3,4-d]pyrimidin-3-yl]-phenyl}-urea], 1 to 10 µM.
On to `Cc1cc(-c2nn(C)c3nc(NCCN4CCOCC4)ncc23)ccc1NC(=O)Nc1cc(C(F)(F)F)ccc1F` [Example 43, 1-(2-Fluoro-5-trifluoromethyl-phenyl)-3-{methyl-[methyl-(2-morpholin-4-yl-ethylamino)-1H-pyrazolo[3,4-d]pyrimidin-3-yl]-phenyl}-urea], for which the “TIE2 PIC50 TIE2-E2 assay” value is recorded as “+++ (+++ = PIC50 = 7.00 to less than 7.40)”.
As to `Cc1cc(-c2nn(C)c3nc(NCCN4CCOCC4)ncc23)ccc1NC(=O)Nc1ccc(Cl)c(C(F)(F)F)c1` [Example 44, 1-(Chloro-trifluoromethyl-phenyl)-3-{methyl-[methyl-(2-morpholin-4-yl-ethylamino)-1H-pyrazolo[3,4-d]pyrimidin-3-yl]-phenyl}-urea], the “TIE2 PIC50 TIE2-E2 assay” value is reported as “++ (++ = PIC50 = 6.00 to less than 7.00)”.
On to `CCc1cccc(NC(=O)Nc2ccc(-c3nn(C)c4nc(NCCN5CCOCC5)ncc34)cc2C)c1` [Example 45, 1-(3-Ethyl-phenyl)-3-{2-methyl-4-[1-methyl-6-(2-morpholin-4-yl-ethylamino)-1H-pyrazolo[3,4-d]pyrimidin-3-yl]-phenyl}-urea], for which the IC50 was in the range of 0.1 to 1 µM.
On the same count and under the same terms, with `Cc1cc(-c2nn(C)c3nc(NCCN4CCOCC4)ncc23)ccc1NC(=O)Nc1cc(C(F)(F)F)cc(C(F)(F)F)c1` [Example 47, 1-(Bis-trifluoromethyl-phenyl)-3-{methyl-[methyl-(2-morpholin-4-yl-methylamino)-1H-pyrazolo[3,4-d]pyrimidin-3-yl]-phenyl}-urea] the figure was 0.1 to 1 µM.
As to `Cc1cc(-c2nn(C)c3nc(NCCN4CCOCC4)ncc23)ccc1NC(=O)Nc1cccc(C(F)(F)F)c1` [Example 48, 1-{2-Methyl-4-[methyl-(2-morpholin-4-yl-ethylamino)-1H -pyrazolo[3,4-d]pyrimidin-3-yl]-phenyl}-3-(3-trifluoromethyl-phenyl)-urea], the “TIE2 PIC50 TIE2-E2 assay” value is “++ (++ = PIC50 = 6.00 to less than 7.00)”.
For `CC(=O)c1cccc(NC(=O)Nc2ccc(-c3nn(C)c4nc(NCCN5CCOCC5)ncc34)cc2F)c1` [Example 54, 1-(3-Acetyl-phenyl)-3-{2-fluoro-4-[1-methyl-6-(2-morpholin-4-yl-ethylamino)-1H-pyrazolo[3,4-d]pyrimidin-3-yl]-phenyl}-urea], the IC50 lay in the range of 0.1 to 1 µM.
Regarding `Cc1cc(-c2nn(C)c3nc(NCCN4CCOCC4)ncc23)ccc1NC(=S)Nc1cccc(C(F)(F)F)c1` [Example 58, 1-{2-Methyl-4-[1-methyl-6-(2-morpholin-4-yl-ethylamino)-1H -pyrazolo[3,4-d]-pyrimidin-3-yl]-phenyl}-3-(3-trifluoromethyl-phenyl)-thiourea], the IC50 lay within 1 to 10 µM.
Turning to `Cn1nc(-c2ccc(NC(=O)Nc3cc(C(F)(F)F)ccc3F)cc2)c2cnc(NCc3ccccc3)nc21` [Example 62, 1-(2-fluoro-5-trifluoromethyl-phenyl)-3-{4-[1-methyl-6-(benzylamino)-1H-pyrazolo[3,4-d]pyrimidin-3-yl]-phenyl}-urea], the IC50 is 1 to 10 µM.
On to `Cn1nc(-c2ccc(NC(=O)Nc3cc(C(F)(F)F)ccc3F)cc2)c2cnc(Nc3cccc(Cl)c3)nc21` [Example 63], for which the “TIE2 PIC50 TIE2-E2 assay” value is “++ (++ = PIC50 = 6.00 to less than 7.00)”.
In the case of `CN1CCC(N(C)c2ncnc3[nH]nc(-c4ccc(NC(=O)Nc5cc(C(F)(F)F)ccc5F)cc4)c23)CC1` [Example 65, 1-(2-fluoro-5-trifluoromethyl-phenyl)-3-(4-[methyl-(1-methyl-piperidin-4-ylamino]-1H-pyrazolo[3,4-d]pyrimidin-3-yl]-phenyl}-urea], the “TIE2 PIC50 TIE2-E2 assay” value is given as “+ (+ = PIC50 = 5.00 to less than 6.00)”.
Turning to `CN1CCC(Nc2ncc3c(-c4ccc(NS(=O)(=O)c5cccc(Cl)c5Cl)cc4)nn(C)c3n2)CC1` [Example 68], the IC50 was in the range of 0.1 to 1 µM.
As for `Cn1nc(-c2ccc(NC(=O)Nc3cc(C(F)(F)F)ccc3F)cc2)c2cnc(NCCc3ccccc3)nc21` [Example 81, 1-(2-Fluoro-5-trifluoromethyl-phenyl)-3-{4-[(1-methyl-6-phenethylamino)-1H-pyrazolo[3,4-d]pyrimidin-3-yl]-phenyl} urea], the IC50 fell in the range of 1 to 10 µM.
On the same count and under the same terms, next, `Cn1nc(-c2ccc(NC(=O)Nc3cc(C(F)(F)F)ccc3F)cc2)c2cnc(NCCCN3CCCC3)nc21` [Example 86]: ≤ 0.0398 µM; `CN(C)CCCNc1ncc2c(-c3ccc(NC(=O)Nc4cc(C(F)(F)F)ccc4F)cc3)nn(C)c2n1` [Example 87, 1-(2-Fluoro-5-trifluoromethyl-phenyl)-3-{4-[1-methyl-6-(3-dimethylamino-propylamino)-1H-pyrazolo[3,4-d]pyrimidin-3-yl]-phenyl} urea]: ≤ 0.0398 µM; `Cn1nc(-c2ccc(NC(=O)Nc3cc(C(F)(F)F)ccc3F)cc2)c2cnc(NCCCN)nc21` [Example 94, 1-(2-Fluoro-5-trifluoromethyl-phenyl)-3-{4-[1-methyl-6-(3-amino-propylamino)-1H-pyrazolo[3,4-d]pyrimidin-3-yl]-phenyl} urea]: 0.0398 to 0.1 µM.
On the same count and under the same terms, with `Cn1nc(-c2ccc(NC(=O)Nc3cc(C(F)(F)F)ccc3F)cc2)c2cnc(NCCCCN)nc21` [Example 95, 1-(2-Fluoro-5-trifluoromethyl-phenyl)-3-{4-[1-methyl-6-(4-amino-butylamino)-1H-pyrazolo[3,4-d]pyrimidin-3-yl]-phenyl} urea] the figure was ≤ 0.0398 µM; with `Cn1nc(-c2ccc(NC(=O)Nc3cc(C(F)(F)F)ccc3F)cc2)c2cnc(NCCCCNC(=N)N)nc21` [Example 99, 1-(2-Fluoro-5-trifluoromethyl-phenyl)-3-{4-[1-methyl-6-(4-guanidino-butylamino)-1H-pyrazolo[3,4-d]pyrimidin-3-yl]-phenyl} urea], 0.0398 to 0.1 µM; with `Cn1nc(-c2ccc(NS(=O)(=O)c3cccc(Cl)c3Cl)cc2)c2cnc(NCCCN3CCOCC3)nc21` [Example 103, 2,3-Dichloro-N-{4-[1-methyl-6-(3-morpholin-4-yl-propylamino)-1H-pyrazolo[3,4-d]pyrimidin-3-yl)-phenyl}-benzenesulfonamide], > 10 µM.
Same read-out and setting: with `CC1CCCCN1CCCNc1ncc2c(-c3ccc(NS(=O)(=O)c4cccc(Cl)c4Cl)cc3)nn(C)c2n1` (centres unmarked) [Example 104, 2,3-Dichloro-N-(4-{1-methyl-6-[3-(2-methyl-piperidin-1-yl)-propylamino]-1H-pyrazolo[3,4-d]pyrimidin-3-yl)-phenyl}-benzenesulfonamide] the figure was > 10 µM.
For the molecule `Cn1nc(-c2ccc(NS(=O)(=O)c3cccc(Cl)c3Cl)cc2)c2cnc(NCCCN3CCCC3)nc21` [Example 105, 2,3-Dichloro-N-{4-[1-methyl-6-(3-pyrrolidin-1-yl-propylamino)-1H-pyrazolo[3,4-d]pyrimidin-3-yl]-phenyl}-benzenesulfonamide], the IC50 is > 10 µM.
Consider `CN(C)CCCNc1ncc2c(-c3ccc(NS(=O)(=O)c4cccc(Cl)c4Cl)cc3)nn(C)c2n1` [Example 106, 2,3-Dichloro-N-{4-[1-methyl-6-(3-dimethylamino-propylamino)-1H-pyrazolo[3,4-d]pyrimidin-3-yl]-phenyl}-benzenesulfonamide], for which the IC50 was > 10 µM.
